In patent US20130317045A1, “THIENOPYRIDINE AND THIENOPYRIMIDINE COMPOUNDS AND METHODS OF USE THEREOF” (AMBIT BIOSCIENCES CORPORATION, priority 2010, published 2013):
Like-named read-outs stand apart in the source and are kept apart here.

Columns and labels:
[1] = system: GM-CSFR/JAK2/STAT5 pathway in CSTF-1 cells; test: CSTF-1 cell-based reporter assay (beta-lactamase, GM-CSF stimulated); parameters: species or system human; conditions: GM-CSF at 2 ng/mL, 4 hours, read-out: Cell Assay: CS TF-1 reporter assay IC50
Method: CSTF-1 Cell-Based Reporter Assay
CSTF-1 cells are derived from the human erythroleukemia cell line that is growth dependent on GM-CSF and has an intact GM-CSFR/JAK2/STAT5 pathway. The cell line contains stably integrated beta-lactamase reporter gene under the control of the […] (irf 1) response element recognized by the activated transcription factor STATS. csTF-1 cells (Invitrogen K1219) were washed with assay media (97% OPTIMEM/ 0.5% dialyzed FBS/0.1 mM NEAA/1 mM Na pyr/P/S) and seeded in the same media at 5×10^5 cell/mL in T150 flask. After 16 hour incubation, cells were seeded at 2×10^5 cell/well in 50 μl volume, into Costar, clear bottom, 96-well assay plates. Serial dilutions of compounds were added to the plates with final DMSO concentration at 0.5% and GM-CSF at 2 ng/mL and the plates were then incubated at […] and 5% CO2 for 4 hours. The plates were brought to room temperature before adding Substrate Mixture according to manufacturer's protocol (Invitrogen, Catalog #K1085). The assay plates containing the substrate mixture were incubated in the dark at room temperature for 2 hours. Blue and green fluorescence was measured with excitation at 409 nm and emission at 460 nm (for blue) and excitation at 409 nm and emission at 530 nm (for green) using Spectra Max Gemini EM.

JAK2 = biological target: T1, JAK2 (Homo sapiens, UniProt O60674); test: Competition binding assay, JAK2
T1 construct: made in house
T1 sequence (O60674 whole entry): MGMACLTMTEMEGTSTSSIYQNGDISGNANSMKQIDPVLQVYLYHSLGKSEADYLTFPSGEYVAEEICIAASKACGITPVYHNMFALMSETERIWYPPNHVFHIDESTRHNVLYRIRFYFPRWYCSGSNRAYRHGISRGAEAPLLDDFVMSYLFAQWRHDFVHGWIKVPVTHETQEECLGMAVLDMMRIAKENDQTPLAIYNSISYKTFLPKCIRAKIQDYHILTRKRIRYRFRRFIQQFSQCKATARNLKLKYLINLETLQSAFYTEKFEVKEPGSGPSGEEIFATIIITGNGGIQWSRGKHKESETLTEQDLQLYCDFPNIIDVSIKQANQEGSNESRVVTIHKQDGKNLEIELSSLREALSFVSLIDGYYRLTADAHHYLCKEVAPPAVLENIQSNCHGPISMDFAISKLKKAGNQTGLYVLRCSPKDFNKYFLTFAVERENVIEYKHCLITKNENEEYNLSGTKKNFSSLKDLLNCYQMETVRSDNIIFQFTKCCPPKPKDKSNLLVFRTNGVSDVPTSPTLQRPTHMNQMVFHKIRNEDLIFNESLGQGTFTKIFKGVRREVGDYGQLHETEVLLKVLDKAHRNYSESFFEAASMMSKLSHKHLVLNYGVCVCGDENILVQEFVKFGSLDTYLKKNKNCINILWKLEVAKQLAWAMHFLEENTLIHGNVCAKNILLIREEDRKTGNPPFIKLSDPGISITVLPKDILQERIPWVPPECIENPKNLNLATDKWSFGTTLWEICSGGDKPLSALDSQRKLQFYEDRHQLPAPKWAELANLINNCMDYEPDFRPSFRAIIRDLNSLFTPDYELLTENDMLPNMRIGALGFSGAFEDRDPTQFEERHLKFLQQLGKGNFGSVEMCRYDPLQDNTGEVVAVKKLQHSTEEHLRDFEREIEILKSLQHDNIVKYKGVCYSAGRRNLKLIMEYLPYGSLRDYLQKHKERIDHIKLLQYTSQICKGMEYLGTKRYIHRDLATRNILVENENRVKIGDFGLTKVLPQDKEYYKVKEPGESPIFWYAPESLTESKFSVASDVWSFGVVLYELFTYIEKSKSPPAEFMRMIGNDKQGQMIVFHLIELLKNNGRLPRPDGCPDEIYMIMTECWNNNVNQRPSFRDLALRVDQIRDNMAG
Source text: (§1) Competition Binding Assay to Determine Binding Constants (Kd) of the Compounds Against JAK Kinases
(§2) Competition binding assays used herein were developed, validated and performed as described in Fabian et al., Nature Biotechnology 2005, 23,329-336. Kinases were produced as fusions to T7 phage (See, Fabian et al. or WO04/015142) or alternatively, the kinases were expressed in HEK-293 cells and subsequently tagged with DNA for PCR detection (See, WO08/005310). For the binding assays, streptavidin-coated magnetic beads were treated with biotinylated affinity ligands for 30 min at rt to generate affinity resins. The liganded beads were blocked with excess biotin and washed with blocking buffer (SeaBlock (Pierce), 1% BSA, 0.05% Tween 20, 1 mM DTT) to remove unbound ligand and to reduce non-specific binding. Binding reactions were assembled by combining kinase, liganded affinity beads, and test compounds in 1× binding buffer (20% SeaBlock, 0.17×PBS, 0.05% Tween 20, 6 mM DTT). Test compounds were prepared as 100× stocks in DMSO and rapidly diluted into the aqueous environment. DMSO was added to control assays lacking a test compound. Primary screen interactions were performed in polypropylene 384-well plates in a final volume of 34 μL, while Kd determinations were performed in polystyrene 96-well plates in a final volume of 135 μL. The assay plates were incubated at room temperature with shaking for 1 hour, long enough for binding reactions to reach equilibrium, and the affinity beads were washed extensively with wash buffer (1× PBS, 0.05% Tween 20) to remove unbound protein. The beads were then resuspended in elution buffer (1× PBS, 0.05% Tween 20, 2 μM non-biotinylated affinity ligand) and incubated at room temperature with shaking for 30 min. The kinase concentration in the eluates was measured by quantitative PCR. Each kinase was tested individually against each compound. Kds were determined using eleven serial threefold dilutions. A selectivity score, which is a quantitative measure of selectivity of a compound against a panel of enzymes, may be calculated for a compound by dividing the number of enzymes for which a compound meets a set criteria, (for example, a binding constant of 100 nM or less), by the total number of enzymes tested.

JAK3 = biological target: T2, JAK3 (Homo sapiens, UniProt P52333); test: Competition binding assay, JAK3
T2 construct: made in house
T2 sequence (P52333 1-1124): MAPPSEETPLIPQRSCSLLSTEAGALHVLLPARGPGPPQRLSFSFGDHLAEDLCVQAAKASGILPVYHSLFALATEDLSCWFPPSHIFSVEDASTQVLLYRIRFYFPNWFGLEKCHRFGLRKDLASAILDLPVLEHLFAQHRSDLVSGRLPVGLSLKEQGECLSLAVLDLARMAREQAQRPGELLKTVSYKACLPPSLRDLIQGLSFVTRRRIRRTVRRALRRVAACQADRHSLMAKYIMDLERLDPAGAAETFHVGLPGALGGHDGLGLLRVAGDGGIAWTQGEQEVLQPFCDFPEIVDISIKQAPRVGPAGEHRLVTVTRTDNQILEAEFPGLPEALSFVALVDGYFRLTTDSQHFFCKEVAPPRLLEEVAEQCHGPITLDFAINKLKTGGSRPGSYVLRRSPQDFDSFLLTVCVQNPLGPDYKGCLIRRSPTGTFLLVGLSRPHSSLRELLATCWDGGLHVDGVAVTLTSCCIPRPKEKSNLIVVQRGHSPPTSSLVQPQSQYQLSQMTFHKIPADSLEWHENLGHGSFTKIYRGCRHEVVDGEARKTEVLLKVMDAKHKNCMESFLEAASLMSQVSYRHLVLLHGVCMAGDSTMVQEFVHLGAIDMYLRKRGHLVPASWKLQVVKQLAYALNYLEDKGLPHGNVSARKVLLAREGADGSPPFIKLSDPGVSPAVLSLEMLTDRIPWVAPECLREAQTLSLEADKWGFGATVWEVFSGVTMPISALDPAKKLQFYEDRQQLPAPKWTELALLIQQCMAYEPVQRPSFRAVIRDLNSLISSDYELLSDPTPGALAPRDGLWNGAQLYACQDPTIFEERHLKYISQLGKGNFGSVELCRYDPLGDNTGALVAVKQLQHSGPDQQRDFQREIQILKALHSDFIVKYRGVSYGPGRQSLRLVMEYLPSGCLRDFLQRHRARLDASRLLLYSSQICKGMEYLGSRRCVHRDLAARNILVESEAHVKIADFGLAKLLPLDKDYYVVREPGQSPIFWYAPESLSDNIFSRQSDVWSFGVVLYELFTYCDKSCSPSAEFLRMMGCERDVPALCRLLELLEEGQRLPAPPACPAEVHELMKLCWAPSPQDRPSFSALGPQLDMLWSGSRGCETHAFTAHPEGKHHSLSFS
Source text: as §1, §2

[2] = system: distinct kinases tested excluding mutant variants, typically 359 or 386 kinases; test: Kinase selectivity score from competition binding panel; conditions: compound at 10 μM; fraction of kinases with inhibition of 90% or greater
Method: as §2

TYK2 = biological target: T3, TYK2 (Homo sapiens, UniProt P29597); test: Competition binding assay, TYK2
T3 construct: made in house
T3 sequence (P29597 whole entry): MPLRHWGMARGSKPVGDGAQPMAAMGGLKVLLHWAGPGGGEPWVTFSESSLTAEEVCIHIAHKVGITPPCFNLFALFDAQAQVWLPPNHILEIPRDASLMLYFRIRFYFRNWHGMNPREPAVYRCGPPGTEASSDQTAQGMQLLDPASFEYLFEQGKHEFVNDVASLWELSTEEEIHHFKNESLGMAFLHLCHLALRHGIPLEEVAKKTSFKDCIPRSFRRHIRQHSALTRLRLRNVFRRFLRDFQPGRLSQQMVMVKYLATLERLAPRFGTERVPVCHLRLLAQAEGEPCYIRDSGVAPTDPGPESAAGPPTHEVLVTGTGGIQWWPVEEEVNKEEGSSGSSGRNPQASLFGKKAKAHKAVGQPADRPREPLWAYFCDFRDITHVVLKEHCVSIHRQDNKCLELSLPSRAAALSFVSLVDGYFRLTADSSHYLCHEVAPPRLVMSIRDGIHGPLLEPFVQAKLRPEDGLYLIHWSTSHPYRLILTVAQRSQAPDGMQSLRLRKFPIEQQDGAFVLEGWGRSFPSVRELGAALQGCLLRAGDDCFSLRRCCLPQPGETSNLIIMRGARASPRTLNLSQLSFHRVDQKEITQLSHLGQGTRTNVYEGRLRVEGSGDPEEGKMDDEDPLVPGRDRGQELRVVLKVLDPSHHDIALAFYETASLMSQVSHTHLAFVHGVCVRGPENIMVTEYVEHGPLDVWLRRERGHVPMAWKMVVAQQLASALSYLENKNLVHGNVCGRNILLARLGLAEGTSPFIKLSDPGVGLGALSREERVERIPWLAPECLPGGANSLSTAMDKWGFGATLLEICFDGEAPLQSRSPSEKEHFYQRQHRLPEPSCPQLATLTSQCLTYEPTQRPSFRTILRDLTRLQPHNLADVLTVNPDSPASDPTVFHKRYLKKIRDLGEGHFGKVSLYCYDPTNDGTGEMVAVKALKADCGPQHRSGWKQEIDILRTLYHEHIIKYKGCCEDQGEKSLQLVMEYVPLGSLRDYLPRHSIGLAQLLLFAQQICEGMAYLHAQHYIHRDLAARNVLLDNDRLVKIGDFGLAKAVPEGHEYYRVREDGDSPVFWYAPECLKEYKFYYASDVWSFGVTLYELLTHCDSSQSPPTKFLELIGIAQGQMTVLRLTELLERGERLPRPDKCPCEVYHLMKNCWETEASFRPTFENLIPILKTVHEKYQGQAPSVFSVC
Source text: as §1, §2

Compound	IC50 ([1]; Homo sapiens)	Kd (JAK2)	Kd (JAK3)	S-Score: S(10) at 10 μM [2]	Kd (TYK2)	IC50 [1]
Cc1cc(Nc2nc(C(F)(F)c3ccc(F)cc3)nc3ccsc23)n[nH]1 [Example 7, 2-(difluoro(4-fluorophenyl)methyl)-N-(5-methyl-1H-pyrazol-3-yl)thieno[3,2-d]pyrimidin-4-amine]	≤ 100 nM	≤ 1 nM	≤ 10 nM	C (0.4 < C ≦ 0.5)	≤ 10 nM	
(4-(1H-pyrazol-3-ylamino)-7-methylthieno[3,2-d]pyrimidin-2-yl)(4-fluorophenyl)methanone [Example 24]		1 to 10 nM	> 100 nM	A (A ≦ 0.3)	> 100 nM	> 500 nM
Cc1cc2c(Nc3cc[nH]n3)nc(C(O)c3ccc(F)cc3)nc2s1 (racemic) [Example 17, (R,S)-(4-(1H-pyrazol-3-ylamino)-6-methylthieno[2,3-d]pyrimidin-2-yl)(4-fluorophenyl)methanol]	100 to 500 nM	≤ 1 nM	10 to 100 nM	A (A ≦ 0.3)	> 100 nM	
Fc1ccc(C(F)(F)c2nc(Nc3cc[nH]n3)c3sccc3n2)cc1 [Example 8, 2-(difluoro(4-fluorophenyl)methyl)-N-(1H-pyrazol-3-yl)thieno[3,2-d]pyrimidin-4-amine]	≤ 100 nM	≤ 1 nM	10 to 100 nM	A (A ≦ 0.3)	≤ 10 nM	
CC(C)(C)c1cc2nc(C(=O)c3ccc(F)cc3)nc(Nc3cc[nH]n3)c2s1 [Example 28, (4-(1H-pyrazol-3-ylamino)-6-tert-butylthieno[3,2-d]pyrimidin-2-yl)(4-fluorophenyl)methanone]	100 to 500 nM	1 to 10 nM	> 100 nM	A (A ≦ 0.3)	> 100 nM	
Cc1cc(Nc2nc(C(O)c3ccc(F)cc3)nc3sccc23)n[nH]1 (racemic) [Example 4, (R,S)-(4-fluorophenyl)(4-(5-methyl-1H-pyrazol-3-ylamino)thieno[2,3-d]pyrimidin-2-yl)methanol]	≤ 100 nM	≤ 1 nM	≤ 10 nM	B (0.3 < B ≦ 0.4)	≤ 10 nM	
Cc1cc(Nc2nc(C(O)c3ccc(F)cc3)nc3cc(C(C)(C)C)sc23)n[nH]1 (stereo not drawn) [Example 27, (6-tert-butyl-4-(5-methyl-1H-pyrazol-3-ylamino)thieno[3,2-d]pyrimidin-2-yl)(4-fluorophenyl)methanol]	100 to 500 nM	≤ 1 nM	10 to 100 nM	A (A ≦ 0.3)	> 100 nM	
Cc1cc(Nc2nc(C(=O)c3ccc(F)cc3)nc3cc(C(C)(C)C)sc23)n[nH]1 [Example 26, (6-tert-butyl-4-(5-methyl-1H-pyrazol-3-ylamino)thieno[3,2-d]pyrimidin-2-yl)(4-fluorophenyl) methanone]	100 to 500 nM	1 to 10 nM	> 100 nM	A (A ≦ 0.3)	> 100 nM	
Cc1cc(Nc2nc(C(F)(F)c3ccc(F)cc3)nc3cc(C(C)(C)C)sc23)n[nH]1 [Example 30, 6-tert-butyl-2-(difluoro(4-fluorophenyl)methyl)-N-(5-methyl-1H-pyrazol-3-yl)thieno[3,2-d]pyrimidin-4-amine]	100 to 500 nM	1 to 10 nM	10 to 100 nM	A (A ≦ 0.3)	> 100 nM	
COC(c1ccc(F)cc1)c1nc(Nc2cc(C)[nH]n2)c2ccsc2n1 (racemic) [Example 9, (R,S)-2-((4-fluorophenyl)(methoxy)methyl)-N-(5-methyl-1H-pyrazol-3-yl)thieno[2,3-d]pyrimidin-4-amine]	100 to 500 nM	≤ 1 nM	10 to 100 nM	A (A ≦ 0.3)	≤ 10 nM	
Fc1ccc(C(F)(F)c2nc(Nc3cc[nH]n3)c3ccsc3n2)cc1 [Example 2, 2-(difluoro(4-fluorophenyl)methyl)-N-(1H-pyrazol-3-yl)thieno[2,3-d]pyrimidin-4-amine]	≤ 100 nM	≤ 1 nM	10 to 100 nM	A (A ≦ 0.3)	≤ 10 nM	
Cc1cc(Nc2nc(C(=O)c3ccc(F)cc3)nc3ccsc23)n[nH]1 [Example 5, (4-fluorophenyl)(4-(5-methyl-1H-pyrazol-3-ylamino)thieno[3,2-d]pyrimidin-2-yl)methanone]	≤ 100 nM	≤ 1 nM	≤ 10 nM	A (A ≦ 0.3)	10 to 100 nM	
Cc1cc(Nc2nc(C(=O)c3ccc(F)cc3)nc3sccc23)n[nH]1 [Example 3, (4-fluorophenyl)(4-(5-methyl-1H-pyrazol-3-ylamino)thieno[2,3-d]pyrimidin-2-yl)methanone]	≤ 100 nM	≤ 1 nM	≤ 10 nM	B (0.3 < B ≦ 0.4)	10 to 100 nM	
Cc1csc2nc(C(=O)c3ccc(F)cc3)nc(Nc3cc[nH]n3)c12 [Example 12, (4-(1H-pyrazol-3-ylamino)-5-methylthieno[2,3-d]pyrimidin-2-yl)(4-fluorophenyl)methanone]	> 500 nM	> 10 nM	> 100 nM	A (A ≦ 0.3)	> 100 nM	
Cc1cc(Nc2nc(C(O)c3ccc(F)cc3)nc3cc(C)sc23)n[nH]1 (racemic) [Example 21, (R,S)-(4-fluorophenyl)(6-methyl-4-(5-methyl-1H-pyrazol-3-ylamino)thieno[3,2-d]pyrimidin-2-yl)methanol]	≤ 100 nM	≤ 1 nM	≤ 10 nM	B (0.3 < B ≦ 0.4)	≤ 10 nM	
